Test system: CHO cell lines (Cell line A and Cell line B)
Format: cell-based, Chinese Hamster
Procedure: To test for the effect of toxicity of high polyoxypropylene-polyoxyethylene block copolymer (LUTROL® F68) concentration on cells, two CHO cell lines (Cell line A and Cell line B) expressing different monoclonal antibodies were carried over 10 passages (at 3 days/passage), at an initial seeding density of 8×10^5 cells/ml in 250 ml shake flasks with cell culture media containing 1, 2, 3, 4 or 5 g/L polyoxypropylene-polyoxyethylene block copolymer (LUTROL® F68).
An overall increase in cell density was observed (3.4-6.5×10^6 cells/ml) after 3 days. Viable cell density was normalized to the 1 g/L condition to enable comparison between the different polyoxypropylene-polyoxyethylene block copolymer (LUTROL® F68) concentrations.
The cells grown in media containing 3, 4 or 5 g/L polyoxypropylene-polyoxyethylene block copolymer (LUTROL® F68) were consistently higher over the passages, in which a 10% increase in cell density was measured compared to the 1 g/L condition (p<0.01) (FIG. 7A). The viability was also greater for the higher polyoxypropylene-polyoxyethylene block copolymer (LUTROL® F68) cultures (mean >95%) (FIG. 7B). […] The variation of viable cell density, % viability.

For poloxamer 188 [LUTROL® F68], the “cell diameter compared to the 1 g/L condition” value was “increased slightly”, the “increase in cell density compared to the 1 g/L condition” value was 10% and the “viability (mean)” value was greater than 95%.

Source: patent US11427848B2, “Methods for harvesting mammalian cell cultures” (Amgen Inc., priority 2014, dated 2022)
